Among the data in patent publication US11724992B2 (Novartis AG, priority 2017, dated 2023) are IC50 values, retold here.

The structures appear in SMILES notation. A value given as a limit tells only on which side of the number the result lay.

As usually defined, the IC50 is the concentration needed to halve the response being measured.

One assay deals with IL-1β production in PMA-differentiated THP-1 cells. Put plainly: IL-1β production in PMA-differentiated THP-1 cells stimulated with gramicidin (hTHP-1 assay, 2% fetal bovine serum; Procedures 1-3). The assay is classed as cell-based, human. The settings on record: Homo sapiens, THP-1, hTHP-1 assay containing 2% fetal bovine serum; bound; read-out: hTHP-1 IC50 (Average IC50 of compounds in hTHP-1 assay). The method, boiled down: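 Readout is HTRF of IL-1β in cell-free supernatant after 2 h gramicidin (5 μM) challenge. Cells: THP-1 differentiated with PMA 20 ng/ml for 16-18 h, plated 50,000/well in 2% FBS RPMI, exposed to compound 1 h beforehand at final 100–0.0017 μM, DMSO 0.37%.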
Turning to `CNS(=O)(=NC(=O)N(C)c1c2c(cc3c1CCC3)CCC2)c1cnc(C(C)(C)O)s1` (stereo not drawn) [Compound 249], the IC50 was over 30000 nM.

Staying with this assay, now noted: hTHP-1 assay containing 2% fetal bovine serum; class symbols; read-out: hTHP-1 IC50 (Average IC50 of compounds in hTHP-1 assay).
For the compound `CC(c1ccc(S(N)(=O)=NC(=O)Nc2c3c(cc4c2CCC4)CCC3)cc1)N(C)C` (single isomer, unassigned) [Example 375, (S,R) or (S,S) or (R,S) or (R,R)-4-(1-(dimethylamino)ethyl)-N′-((1,2,3,5,6,7-hexahydro-s-indacen-4-yl)carbamoyl)benzenesulfonimidamide], the IC50 was in the range of 5000 to 30000 nM.
Still for that read-out and setting: in the case of `CC(c1ccc(S(N)(=O)=NC(=O)Nc2c3c(cc4c2CCC4)CCC3)cc1)N(C)C` (single isomer, unassigned) [Example 376, (S,S) or (S,R) or (R,R) or (R,S)-4-(1-(dimethylamino)ethyl)-N′-((1,2,3,5,6,7-hexahydro-s-indacen-4-yl)carbamoyl)benzenesulfonimidamide] it was 5000 to 30000 nM; in that of `CC(c1ccc(S(N)(=O)=NC(=O)Nc2c3c(cc4c2CCC4)CCC3)cc1)N(C)C` (single isomer, unassigned) [Example 377, (R,R) or (R,S) or (S,S) or (S,R)-4-(1-(dimethylamino)ethyl)-N′-((1,2,3,5,6,7-hexahydro-s-indacen-4-yl)carbamoyl)benzenesulfonimidamide], 40 to 200 nM.
On the same count and under the same terms, in the case of `CC(c1ccc(S(N)(=O)=NC(=O)Nc2c3c(cc4c2CCC4)CCC3)cc1)N(C)C` (single isomer, unassigned) [Example 378, (R,S) or (R,R) or (S,R) or (S,S)-4-(1-(dimethylamino)ethyl)-N′-((1,2,3,5,6,7-hexahydro-s-indacen-4-yl)carbamoyl)benzenesulfonimidamide] it was 200 to 1000 nM.
Same read-out and setting: in the case of `CN(C)Cc1cc(F)c(S(N)(=O)=NC(=O)Nc2c3c(cc4c2CCC4)CCC3)s1` (single isomer, unassigned) [Example 381, (R) or (S)-5-((dimethylamino)methyl)-3-fluoro-N′-((1,2,3,5,6,7-hexahydro-s-indacen-4-yl)carbamoyl)thiophene-2-sulfonimidamide] it was 8 to 40 nM; in that of `CN(C)Cc1cc(F)c(S(N)(=O)=NC(=O)Nc2c3c(cc4c2CCC4)CCC3)s1` (single isomer, unassigned) [Example 382, (S) or (R)-5-((dimethylamino)methyl)-3-fluoro-N′-((1,2,3,5,6,7-hexahydro-s-indacen-4-yl)carbamoyl)thiophene-2-sulfonimidamide], 1000 to 5000 nM; in that of `CC(C)(O)c1cc(F)c(S(N)(=O)=NC(=O)Nc2c3c(cc4c2CCC4)CCC3)s1` (single isomer, unassigned) [Example 385, (R) or (S)-3-fluoro-N′-((1,2,3,5,6,7-hexahydro-s-indacen-4-yl)carbamoyl)-5-(2-hydroxypropan-2-yl)thiophene-2-sulfonimidamide], 8 to 40 nM.
As for `CC(C)(O)c1cc(F)c(S(N)(=O)=NC(=O)Nc2c3c(cc4c2CCC4)CCC3)s1` (single isomer, unassigned) [Example 386, (S) or (R)-3-fluoro-N′-((1,2,3,5,6,7-hexahydro-s-indacen-4-yl)carbamoyl)-5-(2-hydroxypropan-2-yl)thiophene-2-sulfonimidamide], the IC50 lay within 200 to 1000 nM.
Still for that read-out and setting: the value for `COC(C)(C)c1ncc(S(N)(=O)=NC(=O)Nc2c3c(cc4c2CCC4)CCC3)s1` (single isomer, unassigned) [Example 387, (S) or (R)-N′-((1,2,3,5,6,7-hexahydro-s-indacen-4-yl)carbamoyl)-2-(2-methoxypropan-2-yl)thiazole-5-sulfonimidamide] was 1000 to 5000 nM; that for `COC(C)(C)c1ncc(S(N)(=O)=NC(=O)Nc2c3c(cc4c2CCC4)CCC3)s1` (single isomer, unassigned) [Example 388, (R) or (S)-N′-((1,2,3,5,6,7-hexahydro-s-indacen-4-yl)carbamoyl)-2-(2-methoxypropan-2-yl)thiazole-5-sulfonimidamide] was 40 to 200 nM.
In the case of `COC(C)(C)c1ccc(S(N)(=O)=NC(=O)Nc2c3c(cc4c2CCC4)CCC3)cc1` (single isomer, unassigned) [Example 399, (R) or (S)-N′-((1,2,3,5,6,7-hexahydro-s-indacen-4-yl)carbamoyl)-4-(2-methoxypropan-2-yl)benzenesulfonimidamide], the IC50 was 200 to 1000 nM.
Regarding `COC(C)(C)c1ccc(S(N)(=O)=NC(=O)Nc2c3c(cc4c2CCC4)CCC3)cc1` (single isomer, unassigned) [Example 400, (S) or (R)-N′-((1,2,3,5,6,7-hexahydro-s-indacen-4-yl)carbamoyl)-4-(2-methoxypropan-2-yl)benzenesulfonimidamide], the IC50 lay in the range of 5000 to 30000 nM.
The same measure, in the same setting: in the case of `CNCc1ccc(S(N)(=O)=NC(=O)Nc2c3c(cc4c2CCC4)CCC3)c(F)c1` (single isomer, unassigned) [Example 403, (R) or (S)-2-fluoro-N′-((1,2,3,5,6,7-hexahydro-s-indacen-4-yl)carbamoyl)-4-((methylamino)methyl)benzenesulfonimidamide] it was 200 to 1000 nM; in that of `CNCc1ccc(S(N)(=O)=NC(=O)Nc2c3c(cc4c2CCC4)CCC3)c(F)c1` (single isomer, unassigned) [Example 404, (S) or (R)-2-fluoro-N′-((1,2,3,5,6,7-hexahydro-s-indacen-4-yl)carbamoyl)-4-((methylamino)methyl)benzenesulfonimidamide], 5000 to 30000 nM; in that of `CN1CCCC1c1ccc(S(=N)(=O)NC(=O)Nc2c3c(cc4c2CCC4)CCC3)cc1` (single isomer, unassigned) [Example 407, (R,R) or (R,S) or (S,S) or (S,R)-N-((1,2,3,5,6,7-hexahydro-s-indacen-4-yl)carbamoyl)-4-(1-methylpyrrolidin-2-yl)benzenesulfonimidamide], 5000 to 30000 nM.
Still for that read-out and setting: the value for `CN1CCCC1c1ccc(S(=N)(=O)NC(=O)Nc2c3c(cc4c2CCC4)CCC3)cc1` (single isomer, unassigned) [Example 408, (S,R) or (S,S) or (R,S) or (R,R)-N-((1,2,3,5,6,7-hexahydro-s-indacen-4-yl)carbamoyl)-4-(1-methylpyrrolidin-2-yl)benzenesulfonimidamide] was 1000 to 5000 nM; that for `CN1CCCC1c1ccc(S(=N)(=O)NC(=O)Nc2c3c(cc4c2CCC4)CCC3)cc1` (single isomer, unassigned) [Example 409, (R,S) or (S,R) or (S,R) or (R,R)-N-((1,2,3,5,6,7-hexahydro-s-indacen-4-yl)carbamoyl)-4-(1-methylpyrrolidin-2-yl)benzenesulfonimidamide] was 200 to 1000 nM; that for `CN1CCCC1c1ccc(S(=N)(=O)NC(=O)Nc2c3c(cc4c2CCC4)CCC3)cc1` (single isomer, unassigned) [Example 410, (R,S) or (S,R) or (R,S or (S,S)-N-((1,2,3,5,6,7-hexahydro-s-indacen-4-yl)carbamoyl)-4-(1-methylpyrrolidin-2-yl)benzenesulfonimidamide] was 40 to 200 nM.
The same measure, in the same setting: in the case of `CN(C)Cc1ccc(S(N)(=O)=NC(=O)Nc2c3c(cc4c2CCC4)CCC3)nc1` (single isomer, unassigned) [Example 413, (R) or (S)-5-((dimethylamino)methyl)-N′-((1,2,3,5,6,7-hexahydro-s-indacen-4-yl)carbamoyl)pyridine-2-sulfonimidamide] it was 200 to 1000 nM.
With `CN(C)Cc1ccc(S(N)(=O)=NC(=O)Nc2c3c(cc4c2CCC4)CCC3)nc1` (single isomer, unassigned) [Example 414, (S) or (R)-5-((dimethylamino)methyl)-N′-((1,2,3,5,6,7-hexahydro-s-indacen-4-yl)carbamoyl)pyridine-2-sulfonimidamide], the 50% inhibitory concentration (IC50) lay within 5000 to 30000 nM.
The same measure, in the same setting: the value for `CC(=O)c1ncc(S(N)(=O)=NC(=O)Nc2c3c(cc4c2CCC4)CCC3)s1` (single isomer, unassigned) [Example 417, (R) or (S)-2-acetyl-N′-((1,2,3,5,6,7-hexahydro-s-indacen-4-yl)carbamoyl)thiazole-5-sulfonimidamide] was 1000 to 5000 nM; that for `CC(=O)c1ncc(S(N)(=O)=NC(=O)Nc2c3c(cc4c2CCC4)CCC3)s1` (single isomer, unassigned) [Example 418, (S) or (R)-2-acetyl-N′-((1,2,3,5,6,7-hexahydro-s-indacen-4-yl)carbamoyl)thiazole-5-sulfonimidamide] was 40 to 200 nM; that for `CC(C)(O)c1ncc(S(N)(=O)=NC(=O)Nc2cc3c(c4c2CCC4)CCC3)s1` (single isomer, unassigned) [Example 419, (R) or (S)-N′-((1,2,3,6,7,8-hexahydro-as-indacen-4-yl)carbamoyl)-2-(2-hydroxypropan-2-yl)thiazole-5-sulfonimidamide] was 40 to 200 nM.
On the same count and under the same terms, in the case of `CC(C)(O)c1ncc(S(N)(=O)=NC(=O)Nc2cc3c(c4c2CCC4)CCC3)s1` (single isomer, unassigned) [Example 420, (S) or (R)-N′-((1,2,3,6,7,8-hexahydro-as-indacen-4-yl)carbamoyl)-2-(2-hydroxypropan-2-yl)thiazole-5-sulfonimidamide] it was 1000 to 5000 nM; in that of `[2H]C1([2H])CCc2cc3c(c(NC(=O)N=S(N)(=O)c4cnc(C(C)(C)O)s4)c21)C([2H])([2H])CC3` (single isomer, unassigned) [Example 421, (R) or (S)-N′-((1,2,3,5,6,7-hexahydro-s-indacen-4-yl-3,3,5,5-d4)carbamoyl)-2-(2-hydroxypropan-2-yl)thiazole-5-sulfonimidamide], 8 to 40 nM; in that of `[2H]C1([2H])CCc2c1cc1c(c2NC(=O)N=S(N)(=O)c2cnc(C(C)(C)O)s2)CCC1([2H])[2H]` (single isomer, unassigned) [Example 423, (R) or (S)-N′-((1,2,3,5,6,7-hexahydro-s-indacen-4-yl-1,1,7,7-d4)carbamoyl)-2-(2-hydroxypropan-2-yl)thiazole-5-sulfonimidamide], 8 to 40 nM.
